Drawing on patent US20230277534A1 (Plexxikon Inc., priority 2011, published 2023), this text covers IC50 for 24 molecules.

One assay deals with B-Raf V600E (Homo sapiens (Human), UniProt P15056, V600E). The assay can be described thus: B-Raf V600E kinase biochemical activity assay (AlphaScreen, biotin-MEK1 substrate). The note with it: 100 μM ATP. The gist of the method: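 B-Raf V600E (0.1 ng) phosphorylated 100 nM biotin-MEK1 with 100 μM ATP (final) in HEPES pH 7.0 with Mg2+/Mn2+ for 45 min at room temperature. Compounds were tested over an 8-point serial dilution. Phospho-MEK1/2 was detected by AlphaScreen after 3 h with beads, and IC50 came from signal versus concentration.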

Assay [1] concerns COLO205 colon adenocarcinoma cells (B-Raf V600E mutation). Description: COLO205 cell growth inhibition (ATPlite). Format: cell-based. Particulars: Homo sapiens, COLO 205, 72 h, 3 days. The gist of the method: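 Cells treated for 3 days at 37 °C, 5% CO2 with an 8-point 1:3 dilution series, top final concentration 10 μM, DMSO control. ATPlite luminescence used as a measure of cell number; IC50 from reading versus concentration.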
In general terms: ATP-based viability assays read luminescence as a measure of living cells.

Bounds are passed on as bounds.

Chain of B-Raf V600E (P15056 whole entry V600E): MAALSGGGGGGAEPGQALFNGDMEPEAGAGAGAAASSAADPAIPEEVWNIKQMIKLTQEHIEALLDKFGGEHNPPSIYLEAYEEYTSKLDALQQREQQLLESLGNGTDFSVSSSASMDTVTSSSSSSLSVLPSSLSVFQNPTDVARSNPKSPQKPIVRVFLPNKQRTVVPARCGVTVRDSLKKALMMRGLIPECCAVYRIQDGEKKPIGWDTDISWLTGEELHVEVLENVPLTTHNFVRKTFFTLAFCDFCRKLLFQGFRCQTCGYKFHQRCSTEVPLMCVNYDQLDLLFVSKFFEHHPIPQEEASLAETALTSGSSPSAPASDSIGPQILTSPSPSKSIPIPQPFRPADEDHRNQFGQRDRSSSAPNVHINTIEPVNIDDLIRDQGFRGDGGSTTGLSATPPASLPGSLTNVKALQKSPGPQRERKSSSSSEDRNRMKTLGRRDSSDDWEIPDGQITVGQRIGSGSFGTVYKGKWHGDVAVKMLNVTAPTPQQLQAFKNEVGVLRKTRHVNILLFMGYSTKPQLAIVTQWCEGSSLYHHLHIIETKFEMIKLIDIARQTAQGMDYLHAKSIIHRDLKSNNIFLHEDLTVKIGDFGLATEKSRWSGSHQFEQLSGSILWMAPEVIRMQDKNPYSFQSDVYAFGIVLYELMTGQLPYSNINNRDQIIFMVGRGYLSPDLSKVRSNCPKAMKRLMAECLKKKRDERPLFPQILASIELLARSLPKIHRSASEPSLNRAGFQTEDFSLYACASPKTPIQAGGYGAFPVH

With `CCN(C)S(=O)(=O)Nc1ccc(F)c(C(=O)c2c[nH]c3ncc(-c4ccc(-c5nnc(C)o5)cc4)cc23)c1F` [Compound P-0304, 2-[4-[3-[3-[[ethyl(methyl)sulfamoyl]amino]-2,6-difluoro-benzoyl]-1H-pyrrolo[2,3-b]pyridin-5-yl]phenyl]-5-methyl-1,3,4-oxadiazole], the IC50 (commonly the concentration needed to halve the response being measured) is less than 0.1 µM against B-Raf V600E and less than 1 µM in assay [1].
In the same order, the values of `CCN(C)S(=O)(=O)Nc1ccc(F)c(C(=O)c2c[nH]c3ncc(-c4ccc(-c5nnc(NC)s5)cc4)cc23)c1F` [Compound P-0305, 2-[4-[3-[3-[[ethyl(methyl)sulfamoyl]amino]-2,6-difluoro-benzoyl]-1H-pyrrolo[2,3-b]pyridin-5-yl]phenyl]-5-(methylamino)-1,3,4-thiadiazole] are less than 0.1 µM and less than 1 µM.
With `CCN(C)S(=O)(=O)Nc1ccc(F)c(C(=O)c2c[nH]c3ncc(-c4cncc(C(C)(C)O)c4)cc23)c1F` [Compound P-0306, 3-[3-[[ethyl(methyl)sulfamoyl]amino]-2,6-difluoro-benzoyl]-5-[5-(1-hydroxy-1-methyl-ethyl)-3-pyridyl]-1H-pyrrolo[2,3-b]pyridine], the figures for the IC50 (against B-Raf V600E; in assay [1]) were less than 0.1 µM and less than 1 µM, respectively.
As for `CCN(C)S(=O)(=O)Nc1ccc(F)c(C(=O)c2c[nH]c3ncc(-c4ccc(C(C)(C)O)nc4)cc23)c1F` [Compound P-0307, 3-[3-[[ethyl(methyl)sulfamoyl]amino]-2,6-difluoro-benzoyl]-5-[6-(1-hydroxy-1-methyl-ethyl)-3-pyridyl]-1H-pyrrolo[2,3-b]pyridine], the results for the IC50 (against B-Raf V600E; in assay [1]) were less than 0.1 µM and less than 1 µM, respectively.
The matching figures for `CCN(CC)c1ccc(-c2cnc3[nH]cc(C(=O)c4c(F)ccc(NS(=O)(=O)N(C)CC)c4F)c3c2)cc1` [Compound P-0308, 5-[4-(diethylamino)phenyl]-3-[3-[[ethyl(methyl)sulfamoyl]amino]-2,6-difluoro-benzoyl]-1H-pyrrolo[2,3-b]pyridine]: less than 0.1 µM and less than 1 µM.
Turning to `CCN(C)S(=O)(=O)Nc1ccc(F)c(C(=O)c2c[nH]c3ncc(-c4ccc5c(c4)NC(=O)C5)cc23)c1F` [Compound P-0309, 3-[3-[[ethyl(methyl)sulfamoyl]amino]-2,6-difluoro-benzoyl]-5-(2-oxoindolin-6-yl)-1H-pyrrolo[2,3-b]pyridine], the IC50 on B-Raf V600E is less than 0.1 µM; in assay [1] it was less than 1 µM.
Turning to `CCN(C)S(=O)(=O)Nc1ccc(F)c(C(=O)c2c[nH]c3ncc(-c4ccc(-c5noc(C)n5)s4)cc23)c1F` [Compound P-0310, 3-[5-[3-[3-[[ethyl(methyl)sulfamoyl]amino]-2,6-difluoro-benzoyl]-1H-pyrrolo[2,3-b]pyridin-5-yl]-2-thienyl]-5-methyl-1,2,4-oxadiazole], the values for the IC50 (on B-Raf V600E; in assay [1]) were less than 0.1 µM and less than 1 µM, respectively.
With `CCN(C)S(=O)(=O)Nc1ccc(F)c(C(=O)c2c[nH]c3ncc(-c4ccc5nc(N)ncc5c4)cc23)c1F` [Compound P-0311, 2-amino-6-[3-[3-[[ethyl(methyl)sulfamoyl]amino]-2,6-difluoro-benzoyl]-1H-pyrrolo[2,3-b]pyridin-5-yl]quinazoline], the values for the IC50 (against B-Raf V600E; in assay [1]) were less than 0.1 µM and less than 1 µM, respectively.
In the case of `CCN(C)S(=O)(=O)Nc1ccc(F)c(C(=O)c2c[nH]c3ncc(-c4ccc5nc(N(C)C)ncc5c4)cc23)c1F` [Compound P-0313, 2-(dimethylamino)-6-[3-[3-1[[ethyl(methyl)sulfamoyl]amino]-2,6-difluoro-benzoyl]-1H-pyrrolo[2,3-b]pyridin-5-yl]quinazoline], the IC50 is less than 0.1 µM at B-Raf V600E and less than 1 µM in assay [1].
In the case of `CCN(C)S(=O)(=O)Nc1ccc(F)c(C(=O)c2c[nH]c3ncc(-c4ccc(C5(O)CC5)cc4)cc23)c1F` [Compound P-0314, 3-[3-1[[ethyl(methyl)sulfamoyl]amino]-2,6-difluoro-benzoyl]-5-[4-(1-hydroxycyclopropyl)phenyl]-1H-pyrrolo[2,3-b]pyridine], the figures for the IC50 (at B-Raf V600E; in assay [1]) were less than 0.1 µM and less than 1 µM, respectively.
Regarding `CCN(C)S(=O)(=O)Nc1ccc(F)c(C(=O)c2c[nH]c3ncc(-c4cncs4)cc23)c1F` [Compound P-0315, 5-[3-[3-[[ethyl(methyl)sulfamoyl]amino]-2,6-difluoro-benzoyl]-1H-pyrrolo[2,3-b]pyridin-5-yl]thiazole], the IC50 against B-Raf V600E is less than 0.1 µM; in assay [1] it was less than 1 µM.
For the molecule `CCN(C)S(=O)(=O)Nc1ccc(F)c(C(=O)c2c[nH]c3ncc(-c4csc(C(C)(C)O)n4)cc23)c1F` [Compound P-0316, 4-[3-[3-[[ethyl(methyl)sulfamoyl]amino]-2,6-difluoro-benzoyl]-1H-pyrrolo[2,3-b]pyridin-5-yl]-2-(1-hydroxy-1-methyl-ethyl)thiazole], the IC50 was less than 0.1 µM against B-Raf V600E and less than 1 µM in assay [1].
As to `CCN(C)S(=O)(=O)Nc1ccc(F)c(C(=O)c2c[nH]c3ncc(-c4ccc(OC)nn4)cc23)c1F` [Compound P-0317, 3-[3-[[ethyl(methyl)sulfamoyl]amino]-2,6-difluoro-benzoyl]-5-(6-methoxypyridazin-3-yl)-1H-pyrrolo[2,3-b]pyridine], the results for the IC50 (against B-Raf V600E; in assay [1]) were less than 0.1 µM and less than 1 µM, respectively.
In the same order, the values of `O=C(c1c(F)ccc(NS(=O)(=O)N2CCCC2)c1F)c1c[nH]c2ncc(-c3cc(N4CCOCC4)ncn3)cc12` [Compound P-0318, N-[2,4-difluoro-3-[5-(6-morpholinopyrimidin-4-yl)-1H-pyrrolo[2,3-b]pyridine-3-carbonyl]phenyl]pyrrolidine-1-sulfonamide] are less than 0.1 µM and less than 1 µM.
For `O=C(c1cccc(NS(=O)(=O)N2CCCC2)c1F)c1c[nH]c2ncc(-c3cc(N4CCOCC4)ncn3)cc12` [Compound P-0321, N-[2-fluoro-3-[5-(6-morpholinopyrimidin-4-yl)-1H-pyrrolo[2,3-b]pyridine-3-carbonyl]phenyl]pyrrolidine-1-sulfonamide], the IC50 against B-Raf V600E was less than 0.1 µM; in assay [1] it was less than 1 µM.
On to `CN1CCN(c2cc(-c3cnc4[nH]cc(C(=O)c5cccc(NS(=O)(=O)N6CCCC6)c5F)c4c3)ncn2)CC1` [Compound P-0322, N-[2-fluoro-3-[5-[6-(4-methylpiperazin-1-yl)pyrimidin-4-yl]-1H-pyrrolo[2,3-b]pyridine-3-carbonyl]phenyl]pyrrolidine-1-sulfonamide], for which the IC50 is less than 0.1 µM against B-Raf V600E and less than 1 µM in assay [1].
`CN1CCN(c2cccc(-c3cnc4[nH]cc(C(=O)c5cccc(NS(=O)(=O)N6CCCC6)c5F)c4c3)n2)CC1` [Compound P-0324, N-[2-fluoro-3-[5-[6-(4-methylpiperazin-1-yl)-2-pyridyl]-1H-pyrrolo[2,3-b]pyridine-3-carbonyl]phenyl]pyrrolidine-1-sulfonamide]: the results for the IC50 (at B-Raf V600E; in assay [1]) were less than 0.1 µM and less than 1 µM, respectively.
The matching figures for `COc1ccnc(-c2cnc3[nH]cc(C(=O)c4cccc(NS(=O)(=O)N5CCCC5)c4F)c3c2)n1` [Compound P-0325, N-[2-fluoro-3-[5-(4-methoxypyrimidin-2-yl)-1H-pyrrolo[2,3-b]pyridine-3-carbonyl]phenyl]pyrrolidine-1-sulfonamide]: less than 0.1 µM and greater than 1 µM.
In the same order, the values of `Cc1ccnc(-c2cnc3[nH]cc(C(=O)c4cccc(NS(=O)(=O)N5CCCC5)c4F)c3c2)n1` [Compound P-0326, N-[2-fluoro-3-[5-(4-methylpyrimidin-2-yl)-1H-pyrrolo[2,3-b]pyridine-3-carbonyl]phenyl]pyrrolidine-1-sulfonamide] are less than 0.1 µM and greater than 1 µM.
Regarding `O=C(c1cccc(NS(=O)(=O)N2CC[C@@H](F)C2)c1F)c1c[nH]c2ncc(-c3cnc(C4CC4)nc3)cc12` [Compound P-0327, (3R)—N-[3-[5-(2-cyclopropylpyrimidin-5-yl)-1H-pyrrolo[2,3-b]pyridine-3-carbonyl]-2-fluoro-phenyl]-3-fluoro-pyrrolidine-1-sulfonamide], the IC50 against B-Raf V600E was less than 0.1 µM; in assay [1], less than 1 µM.
For `CCNS(=O)(=O)Nc1ccc(F)c(C(=O)c2c[nH]c3ncc(-c4cnc(C5CC5)nc4)cc23)c1F` [Compound P-0335, [5-(2-cyclopropylpyrimidin-5-yl)-1H-pyrrolo[2,3-b]pyridin-3-yl]-[3-(ethylsulfamoylamino)-2,6-difluoro-phenyl]methanone], the IC50 against B-Raf V600E is less than 0.1 µM; in assay [1], less than 1 µM.
`CCC(C)S(=O)(=O)Nc1ccc(F)c(C(=O)c2c[nH]c3ncc(-c4ccc(Cl)cc4)cc23)c1F` (stereo not drawn) [Compound P-0337, N-[3-[5-(4-chlorophenyl)-1H-pyrrolo[2,3-b]pyridine-3-carbonyl]-2,4-difluoro-phenyl]butane-2-sulfonamide]: the IC50 at B-Raf V600E was less than 0.1 µM; in assay [1], greater than 1 µM.
For `O=C(c1c(F)ccc(NS(=O)(=O)N2CC[C@@H](F)C2)c1F)c1c[nH]c2ncc(-c3cnc(C4CC4)nc3)cc12` [Compound P-0338, (3R)—N-[3-[5-(2-cyclopropylpyrimidin-5-yl)-1H-pyrrolo[2,3-b]pyridine-3-carbonyl]-2,4-difluoro-phenyl]-3-fluoro-pyrrolidine-1-sulfonamide], the IC50 is less than 0.1 µM against B-Raf V600E and less than 1 µM in assay [1].
`O=C(c1c(F)ccc(NS(=O)(=O)N2CCC(F)C2)c1F)c1c[nH]c2ncc(-c3cnc(C4CC4)nc3)cc12` (stereo not drawn) [Compound P-0339, N-[3-[5-(2-cyclopropylpyrimidin-5-yl)-1H-pyrrolo[2,3-b]pyridine-3-carbonyl]-2,4-difluoro-phenyl]-3-fluoro-pyrrolidine-1-sulfonamide]: the IC50 against B-Raf V600E is less than 0.1 µM; in assay [1], less than 1 µM.
